# Assay results taken from publication PMC8536830 (Current Biology, 2021).
# Where “and” joins values, the source holds several entries; their conditions need not be identical. Equal entries are not always repeated.
# What was measured:
# Format in all cases: cell-based, C. elegans
# [1] = biological target: T1, LGC-51/52 (Caenorhabditis elegans, UniProt Q9NA62+X5LVB0); test: Two-electrode voltage clamp, antagonist inhibitory dose response in Xenopus oocytes expressing LGC-51/52
# Experimental: (§1) We also investigated the antagonist profiles of three potential antagonists: mecamylamine; spiperone; and picrotoxin. These antagonists target different binding sites and have different specificity for vertebrate receptors.
# (§2) Defolliculated Xenopus laevis oocytes were obtained from EcoCyte Bioscience (Dortmund, Germany) and maintained in ND96 (in mM: 96 NaCl, 1 MgCl2, 5 HEPES, 1.8 CaCl2, 2 KCl) solution at 16°C for 3-5 days.
# 5'-capped cRNA was synthesized in vitro using the T3 mMessage mMachine transcription kit according to manufacturer’s protocol (Thermo Fischer Scientific, CA, USA). […]
# (§3) Two-electrode voltage clamp recordings were carried out using the Robocyte2 recording system or a manual TEVC set up, using an OC-725D amplifier (Multi Channel Systems, Reutlingen, Germany) and paired with a custom-made recording chamber and agar bridges from reference and bath electrodes. […] Data was recorded using WinWCP or RoboCyte2 control software, manual data was filtered at 10 Hz.
# Dose response curves were calculated from the peak current during a 10 s agonist stimulation in ND96 solution, with a 60 s ND96 wash in between doses. […] Normalized dose response data was fitted to a nonlinear curve using a four parameters variable slope and the EC50 and Hill slope was calculated. […] Kinetic measurements were calculated from a 60 s agonist perfusion. […]
# [2] = biological target: T2, LGC-56 (Caenorhabditis elegans, UniProt Q10052); test: Two-electrode voltage clamp, antagonist inhibitory dose response in Xenopus oocytes expressing LGC-56; details: for IC50: Xenopus oocytes, TEVC, agonist constant at its EC50, Hill equation, three-parameter slope; for Block of LGC-56 currents by antagonist: agonist at EC50
# Experimental: as §1, §2
# (§4) 5'-capped cRNA was synthesized in vitro using the T3 mMessage mMachine transcription kit according to manufacturer’s protocol (Thermo Fischer Scientific, CA, USA). RNA was then purified using the GeneJET RNA purification kit (Thermo Fischer Scientific, CA, USA) prior to cRNA injection. Defolliculated Xenopus oocytes were placed individually into 96 well plates and injected with 50nL of 500ng/μL RNA using the Roboinject system (Multi Channel Systems GmbH, Reutlingen, Germany). When two constructs were injected the total RNA concentration remained 500ng/μL, with a 1:1 ratio of the components. Injected oocytes were incubated at 16°C in ND96 until the day of recording, typically between 3-5 days post injection.
# (§5) Two-electrode voltage clamp recordings were carried out using the Robocyte2 recording system or a manual TEVC set up, using an OC-725D amplifier (Multi Channel Systems, Reutlingen, Germany) and paired with a custom-made recording chamber and agar bridges from reference and bath electrodes. Glass electrodes were pulled on a P-1000 Micropipette Puller (Sutter, Ca, USA) with a resistance ranging from 0.7-2 MΩ, pipettes, containing AgCl wires, were backfilled with a 3 M KCl solution for manual recordings and 1.5M KCl and 1 M acetic acid for Robocyte2 recordings. Oocytes were clamped at −60mV unless stated otherwise. Continuous recordings were taken during application of agonists and antagonists at 500 Hz. Data was recorded using WinWCP or RoboCyte2 control software, manual data was filtered at 10 Hz.
# (§6) Dose response curves were calculated from the peak current during a 10 s agonist stimulation in ND96 solution, with a 60 s ND96 wash in between doses. Data was gathered over at least two occasions, using different batches of oocytes. Normalized dose response data was fitted to a nonlinear curve using a four parameters variable slope and the EC50 and Hill slope was calculated. All further recordings were carried out with the agonist at its EC50 concentration unless stated otherwise. Ion selectivity was determined using a voltage ramp protocol of 20mV/s ranging from −80mV to +60mV in the presence or absence of the primary agonist in three different solutions: ND96, NMDG (Na^+ free) and Na Gluconate (low Cl^-) solutions. Normalized ramp curves were fitted to a linear regression line and the x intercept was compared between solutions to calculate an average Erev from 4-5 oocytes. Antagonist dose response curves were calculated from the peak current during a 10 s agonist + antagonist stimulation in ND96 solution, with the agonist concentration remaining constant. Repeated agonist stimulus protocols were carried out by measuring the peak current during a 10 s agonist stimulation at three wash intervals, 10 s, 30 s and 60 s. Kinetic measurements were calculated from a 60 s agonist perfusion. Python scripts for TEVC analysis can be found at on GitHub at hiris25/TEVC-analysis-scripts and on Zenodo https://doi.org/10.5281/zenodo.5095181.
# (§7) Dose response and antagonist response curves were generated using custom-built python scripts (key resources table), which combined data from multiple recordings and normalized data by calculating I/Imax for each oocyte. Normalized mean, SD and n numbers where then imported into GraphPad where data was plotted and EC50 or IC50 values were calculated by fitting to the Hill equation using either three or four parameter slopes to obtain the highest degree of fit.
# [3] = biological target: T3, LGC-54 (Caenorhabditis elegans, UniProt O17041); test: Two-electrode voltage clamp, antagonist inhibitory dose response in Xenopus oocytes expressing LGC-54; details: for IC50: Xenopus oocytes, TEVC, agonist constant at its EC50, Hill equation, three-parameter slope; for Block of LGC-54 currents by antagonist: agonist at EC50
# Experimental: as §1, §2, §4, §5, §6, §7
# [4] = biological target: T2, LGC-56; test: Two-electrode voltage clamp, agonist-evoked currents in Xenopus oocytes expressing LGC-56; details: for EC50: Xenopus oocytes, TEVC, current normalized to Imax, Hill equation with variable slope, read-out: EC50, agonist-evoked dose response, LGC-56; for Channel activation in ligand screen, LGC-56: ligands screened at 100 μM, oocytes clamped at −60 mV
# Description: (§8) We aimed to deorphanize C. elegans LGICs without known ligands, focusing on 5 genes in the putative monoamine-gated group: lgc-50; lgc-51; lgc-52; lgc-54; and lgc-56 (previously named ggr-3). Using heterologous overexpression in Xenopus oocytes and two-electrode voltage clamp recordings, we measured channel activity evoked by application of 11 monoamines and other neurotransmitters.
# as §2, §4, §5
# as §6, with “Python scripts for TEVC analysis can be found at on GitHub at hiris25/TEVC-analysis-scripts and on Zenodo https://doi.org/10.5281/zenodo.5095181.” left out
# [5] = biological target: LGC-52 (Caenorhabditis elegans, UniProt Q9NA62); test: Two-electrode voltage clamp, agonist-evoked currents in Xenopus oocytes expressing LGC-52; details: for EC50: Xenopus oocytes, TEVC, current normalized to Imax, Hill equation with variable slope, read-out: EC50, agonist-evoked dose response, LGC-52; for Channel activation in ligand screen, LGC-52: ligands screened at 100 μM, oocytes clamped at −60 mV
# Description: as §8, §2, §4, §5
# as §6, with “Python scripts for TEVC analysis can be found at on GitHub at hiris25/TEVC-analysis-scripts and on Zenodo https://doi.org/10.5281/zenodo.5095181.” left out
# [6] = biological target: T1, LGC-51/52; test: Two-electrode voltage clamp, agonist-evoked currents in Xenopus oocytes co-expressing LGC-51 and LGC-52; details: for Agonist-induced peak current of LGC-51/52 heteromer compared with LGC-52: 1 mM TYR or DA; for EC50: Xenopus oocytes co-expressing LGC-51 and LGC-52, TEVC, Hill equation with variable slope, read-out: EC50, agonist-evoked dose response, LGC-51/52 heteromer
# Experimental: as §2, §4, §5
# as §6, with “Normalized ramp curves were fitted to a linear regression line and the x intercept was compared between solutions to calculate an average Erev from 4-5 oocytes.” left out, “Repeated agonist stimulus protocols were carried out by measuring the peak current during a 10 s agonist stimulation at three wash intervals, 10 s, 30 s and 60 s.” left out, “Python scripts for TEVC analysis can be found at on GitHub at hiris25/TEVC-analysis-scripts and on Zenodo https://doi.org/10.5281/zenodo.5095181.” left out
# [7] = biological target: T3, LGC-54; test: Two-electrode voltage clamp, agonist-evoked currents in Xenopus oocytes expressing LGC-54; details: for EC50: Xenopus oocytes, TEVC, current normalized to Imax, Hill equation with variable slope, read-out: EC50, agonist-evoked dose response, LGC-54; for Channel activation in ligand screen, LGC-54: ligands screened at 100 μM, oocytes clamped at −60 mV
# Description: as §8, §2, §4, §5, §6
# Dose response and antagonist response curves were generated using custom-built python scripts (key resources table), which combined data from multiple recordings and normalized data by calculating I/Imax for each oocyte.
# [8] = biological target: T4, LGC-50 (Caenorhabditis elegans, UniProt P41849); test: Two-electrode voltage clamp, agonist-evoked currents in Xenopus oocytes expressing LGC-50; details: ligands screened at 100 μM, oocytes clamped at −60 mV
# T4 construct: lgc-50 ORF F […]; expressed in transfected cells; host or cells: Xenopus laevis oocytes injected with cRNA (plasmid pJML002, KSM: lgc-50 cDNA)
# T4 sequence (P41849 20-491): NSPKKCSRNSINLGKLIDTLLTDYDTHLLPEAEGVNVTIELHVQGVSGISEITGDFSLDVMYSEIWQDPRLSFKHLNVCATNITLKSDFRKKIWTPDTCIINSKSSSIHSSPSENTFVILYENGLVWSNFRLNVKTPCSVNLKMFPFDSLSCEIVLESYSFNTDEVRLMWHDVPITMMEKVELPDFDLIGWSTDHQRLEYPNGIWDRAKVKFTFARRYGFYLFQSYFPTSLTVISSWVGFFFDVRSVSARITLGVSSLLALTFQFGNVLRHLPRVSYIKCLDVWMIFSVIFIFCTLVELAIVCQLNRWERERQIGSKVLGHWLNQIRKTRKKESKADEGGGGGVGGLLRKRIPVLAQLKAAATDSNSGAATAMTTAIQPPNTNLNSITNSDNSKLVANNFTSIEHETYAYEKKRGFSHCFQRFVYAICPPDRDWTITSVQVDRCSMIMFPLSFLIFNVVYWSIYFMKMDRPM
# Description: as §8, §2
# 5'-capped cRNA was synthesized in vitro using the T3 mMessage mMachine transcription kit according to manufacturer’s protocol (Thermo Fischer Scientific, CA, USA). RNA was then purified using the GeneJET RNA purification kit (Thermo Fischer Scientific, CA, USA) prior to cRNA injection. […]
# as §3
# Dose response curves were calculated from the peak current during a 10 s agonist stimulation in ND96 solution, with a 60 s ND96 wash in between doses. […] Normalized dose response data was fitted to a nonlinear curve using a four parameters variable slope and the EC50 and Hill slope was calculated. […] Ion selectivity was determined using a voltage ramp protocol of 20mV/s ranging from −80mV to +60mV in the presence or absence of the primary agonist in three different solutions: ND96, NMDG (Na^+ free) and Na Gluconate (low Cl^-) solutions. […] Antagonist dose response curves were calculated from the peak current during a 10 s agonist + antagonist stimulation in ND96 solution, with the agonist concentration remaining constant. […] Kinetic measurements were calculated from a 60 s agonist perfusion. […]
# T2 sequence (Q10052 entry or part of it): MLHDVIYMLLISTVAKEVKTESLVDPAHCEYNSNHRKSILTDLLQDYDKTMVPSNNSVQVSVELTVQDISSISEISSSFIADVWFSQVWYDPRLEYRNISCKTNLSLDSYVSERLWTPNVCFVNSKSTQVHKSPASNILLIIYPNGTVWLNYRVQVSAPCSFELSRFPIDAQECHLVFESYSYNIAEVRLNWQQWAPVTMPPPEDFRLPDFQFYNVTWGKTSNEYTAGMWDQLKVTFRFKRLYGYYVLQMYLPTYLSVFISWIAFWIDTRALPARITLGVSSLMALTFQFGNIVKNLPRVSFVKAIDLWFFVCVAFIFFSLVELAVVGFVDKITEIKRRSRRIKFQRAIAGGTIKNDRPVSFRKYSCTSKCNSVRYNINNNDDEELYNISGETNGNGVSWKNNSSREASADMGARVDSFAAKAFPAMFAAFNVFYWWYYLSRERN
# T3 sequence (O17041 entry or part of it): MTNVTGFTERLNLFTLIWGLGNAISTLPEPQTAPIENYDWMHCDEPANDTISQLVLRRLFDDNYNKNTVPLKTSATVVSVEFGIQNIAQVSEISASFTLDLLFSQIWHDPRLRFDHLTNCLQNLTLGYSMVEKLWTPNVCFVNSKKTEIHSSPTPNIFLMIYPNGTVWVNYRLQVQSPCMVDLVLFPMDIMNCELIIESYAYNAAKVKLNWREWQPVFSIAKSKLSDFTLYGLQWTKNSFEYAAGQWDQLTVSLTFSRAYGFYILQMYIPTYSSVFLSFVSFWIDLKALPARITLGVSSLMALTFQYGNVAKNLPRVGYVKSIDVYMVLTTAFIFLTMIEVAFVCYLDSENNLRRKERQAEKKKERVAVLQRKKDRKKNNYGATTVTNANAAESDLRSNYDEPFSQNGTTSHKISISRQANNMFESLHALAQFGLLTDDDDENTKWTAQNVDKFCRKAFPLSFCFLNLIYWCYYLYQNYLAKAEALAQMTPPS
# Sequence of LGC-52 (Q9NA62 entry or part of it): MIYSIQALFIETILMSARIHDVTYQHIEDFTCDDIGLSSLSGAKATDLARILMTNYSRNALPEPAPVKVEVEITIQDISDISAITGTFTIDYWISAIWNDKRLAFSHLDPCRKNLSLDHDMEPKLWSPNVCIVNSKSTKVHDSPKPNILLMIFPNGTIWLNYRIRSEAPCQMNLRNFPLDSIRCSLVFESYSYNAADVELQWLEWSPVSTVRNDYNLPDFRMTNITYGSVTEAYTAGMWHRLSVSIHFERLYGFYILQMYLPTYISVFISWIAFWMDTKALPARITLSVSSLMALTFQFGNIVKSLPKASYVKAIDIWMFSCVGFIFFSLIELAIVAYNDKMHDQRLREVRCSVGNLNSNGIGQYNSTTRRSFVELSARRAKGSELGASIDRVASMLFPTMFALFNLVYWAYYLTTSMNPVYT
# T1 sequence (X5LVB0 entry or part of it): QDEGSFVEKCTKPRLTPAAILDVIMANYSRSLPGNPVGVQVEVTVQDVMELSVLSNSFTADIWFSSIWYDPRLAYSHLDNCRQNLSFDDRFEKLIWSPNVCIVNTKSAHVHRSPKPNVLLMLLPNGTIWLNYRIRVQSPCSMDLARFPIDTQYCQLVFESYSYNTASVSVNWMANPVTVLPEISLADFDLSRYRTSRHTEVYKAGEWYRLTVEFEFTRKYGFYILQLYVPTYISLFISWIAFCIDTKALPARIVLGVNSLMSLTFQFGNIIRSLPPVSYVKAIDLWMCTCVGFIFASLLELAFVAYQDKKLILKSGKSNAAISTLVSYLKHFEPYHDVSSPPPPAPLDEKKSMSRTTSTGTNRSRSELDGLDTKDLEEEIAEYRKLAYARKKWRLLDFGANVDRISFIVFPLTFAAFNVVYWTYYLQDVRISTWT
# T1 sequence (Q9NA62 entry or part of it): as the sequence (Q9NA62 entry or part of it) above
compound,measurement,setting,value
"O=C(CCCN1CCC2(CC1)C(=O)NCN2c1ccccc1)c1ccc(F)cc1 [Spiperone, spiperone]",IC50,"[1]; Xenopus oocytes, TEVC, agonist constant at its EC50, Hill equation, three-parameter slope",170 µM
same,Block of LGC-51/52 currents by antagonist,[1]; agonist at EC50,partial block
same,IC50,[2],127 µM
same,Block of LGC-56 currents by antagonist,[2],partial block
same,IC50,[3],81 µM
same,Block of LGC-54 currents by antagonist,[3],partial block
NCCc1ccc(O)c(O)c1 [dopamine],EC50,[4],642 µM
same,"Channel activation in ligand screen, LGC-56",[4],activated
same,EC50,[5],0.51 µM
same,"Channel activation in ligand screen, LGC-52",[5],activated
same,"EC50 lower for dopamine than tyramine, LGC-52",[5]; ratio of EC50 values,100 fold
same,Agonist-induced peak current of LGC-51/52 heteromer compared with LGC-52,[6],no significant effect
same,EC50,[6],0.81 µM
same,EC50,[7],18 µM
same,"Channel activation in ligand screen, LGC-54",[7],activated
CNC1(C)C2CCC(C2)C1(C)C (stereo not drawn) [mecamylamine],IC50,[2],1 µM
same,Block of LGC-56 currents by antagonist,[2],partially blocked
same,IC50,[3],114 µM and > 100 µM
same,Block of LGC-54 currents by antagonist,[3],only a partial block
NCC(O)c1ccc(O)cc1 (stereo not drawn) [octopamine],Response of LGC-56 at very high concentration,[4]; 1 mM,small response
NCCc1c[nH]c2ccccc12 [tryptamine],"Channel gating in ligand screen, LGC-50",[8],gated
NCCc1ccc(O)cc1 [tyramine],EC50,[4],70 µM
same,"Channel activation in ligand screen, LGC-56",[4],activated
same,EC50,[5],54 µM
same,"Channel activation in ligand screen, LGC-52",[5],activated
same,Agonist-induced peak current of LGC-51/52 heteromer compared with LGC-52,[6],significantly higher
same,EC50,[6],4 µM
same,EC50,[7],13 µM
same,"Channel activation in ligand screen, LGC-54",[7],activated
picrotoxin,IC50,[2],59 µM
same,Block of LGC-56 currents by antagonist,[2],large inhibition of currents
same,IC50,[3],43 µM
same,Block of LGC-54 currents by antagonist,[3],large inhibition of currents
